Measured values taken from PubChem BioAssay (NCI).
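1) Cells in 96-well plates. 2) Compound, 48 h, 5 concentrations. 3) Linear interpolation between surrounding doses. 4) Unreached endpoint = highest concentration. At the TGI there is no net growth.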

Experiments:
Experiment in all cases: DTP human tumour cell line panel, 48 h
[1] = system: 786-0 renal
[2] = system: A549 NSCLC
[3] = system: ACHN renal
[4] = system: BT-549 breast
[5] = system: CCRF-CEM leukemia
[6] = system: DU-145 prostate
[7] = system: EKVX NSCLC
[8] = system: HCT-116 colon
[9] = system: HCT-15 colon
[10] = system: HL-60(TB) leukemia
[11] = system: HOP-92 NSCLC
[12] = system: HS 578T breast
[13] = system: HT29 colon
[14] = system: IGROV1 ovarian
[15] = system: K-562 leukemia
[16] = system: KM12 colon
[17] = system: LOX IMVI melanoma
[18] = system: M14 melanoma
[19] = system: MALME-3M melanoma
[20] = system: MDA-MB-231 breast
[21] = system: MDA-MB-435
[22] = system: MDA-N
[23] = system: MOLT-4 leukemia
[24] = system: NCI-H226 lung
[25] = system: NCI-H23 lung
[26] = system: NCI-H460 lung
[27] = system: NCI-H522 lung
[28] = system: NCI/ADR-RES ovarian
[29] = system: OVCAR-3 ovarian
[30] = system: OVCAR-4 ovarian
[31] = system: OVCAR-5 ovarian
[32] = system: OVCAR-8 ovarian
[33] = system: PC-3 prostate
[34] = system: SF-268 CNS
[35] = system: SF-295 CNS
[36] = system: SF-539 CNS
[37] = system: SK-MEL-2 melanoma
[38] = system: SK-OV-3 ovarian
[39] = system: SN12C renal
[40] = system: SNB-19 CNS
[41] = system: SNB-75 CNS
[42] = system: SR leukemia
[43] = system: SW-620 colon
[44] = system: TK-10 renal
[45] = system: U251 CNS
[46] = system: UACC-257 melanoma
[47] = system: UACC-62 melanoma
[48] = system: UO-31 renal
[49] = system: A498 renal
[50] = system: CAKI-1 renal
[51] = system: COLO 205 colon
[52] = system: HCC-2998 colon
[53] = system: HOP-62 NSCLC
[54] = system: MCF7 breast
[55] = system: RPMI-8226 leukemia
[56] = system: RXF 393 renal
[57] = system: SK-MEL-28 melanoma
[58] = system: SK-MEL-5 melanoma
[59] = system: T-47D breast

Measured: TGI

O=C1CCC2(c3ccc(Cl)cc3)Nc3ccncc3N12 (stereo not given)
not listed: [49] | [50] | [51] | [52] | [53] | [54] | [55] | [56] | [57] | [58] | [59]
> 10 µM: all other assays above

CC(=O)N(C(=O)CC(=O)N1N=C(c2ccccc2)C(N=Nc2ccccc2[N+](=O)[O-])C1=O)c1ccc(Cl)cc1 (stereo not given)
not listed: [18] | [42]
> 10 µM: all other assays above
